# Experimental data published in US12595248B2, “PRMT5 inhibitors” (Merck Sharp & Dohme LLC, priority 2019, dated 2026).
# Experiments:
# [1] = biological target: T1, PRMT5-MEP50 enzyme complex (Homo sapiens, UniProt O14744); test: PRMT5-MEP50 Enzyme Methylation Assay (Version A); assay type: biochemical
# T1 construct: Full-length (FL)-PRMT5-MEP50 enzyme complex (recombinant proteins from baculovirus-transfected Sf21 cells: FL-PRMT5; MW=73837 kDa and FL-MEP50; MW=38614); made in house; host or cells: baculovirus-transfected Sf21 cells
# Experimental: PRMT5-MEP50 Enzyme Methylation Assay (Version A)
# PRMT5-MEP50 biochemical assay is a direct measurement of the methylation activity of the enzyme complex on a short peptide substrate derived from the N-terminus of H4 histone. Methylation experiment was performed with recombinant PRMT5-MEP50 protein complex. The assessment of inhibitory effect of small molecules was measured by the effectiveness of the compounds to inhibit this reaction (EC50).
# In this assay, the potency (EC50) of each compound was determined from a twenty-point (1:2 serial dilution; top compound concentration of 100000 nM) titration curve using the following outlined procedure. To each well of a white ProxiPlus 384 well-plate, 100 nL of compound (1% DMSO in final assay volume of 10 μL) was dispensed, followed by the addition of 8 μL of 1× assay buffer (50 mM Bicine pH 8.0, 1 mM DTT, 0.004% Tween20, 0.01% BSA) containing 1.25 nM of Full-length (FL)-PRMT5-MEP50 enzyme complex (recombinant proteins from baculovirus-transfected Sf21 cells: FL-PRMT5; MW=[…] and FL-MEP50; MW=38614) and 1 μL of 150 μM S-(5′-Adenosyl)-L-Methionine Chloride (SAM). A plate was sealed and placed in a 37° C. humidified chamber for a 60 minutes pre-incubation with compound. Subsequently, each reaction was initiated by the addition of 1 μL 1× assay buffer containing 750 nM biotinylated H4R3 (MeI) peptide. The final reaction in each well of 10 μL consists of 1.0 nM PRMT5-MEP50, 75 nM biotinylated-peptide, and 15 μM SAM. Methylation reactions were allowed to proceed for 150 minutes in a sealed plate at 37° C. Reactions were immediately quenched by the addition of 1 μL of 5% formic acid. A plate was then frozen and shipped to SAMDI™ Tech Inc. to determine the percent conversion from H4R3 (MeI) to H4R3 (Me2). Dose-response curves were generated by plotting percent effect (% product conversion; Y-axis) vs. Log 10 compound concentrations (X-axis). EC50 values were determined by non-linear regression according to models for either sigmoidal (4 parameters) or biphasic (7 parameters) dose-response curves.
# PRMT5 = biological target: T2, PRMT5 (Homo sapiens, UniProt O14744); test: PRMT5 Cell Target Engagement (TE) Assay; assay type: cell-based; conditions: MCF-7 cells, treated for 3 days, symmetric dimethylation of arginine (SDMA) by high content imaging
# T2 construct: seeded with 4000 MCF-7 cells in 30 μl media; endogenous in cells; host or cells: MCF-7 cells
# Outline: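 MCF-7 cells treated 3 days at 37 °C with a ten-point 1:3 titration from 10000 nM. Fixed cells immunostained with anti-SDMA and Alexa488 secondary; nuclear fluorescence quantified by high-content imaging versus DMSO wells, with IC50 from a 4-parameter fit.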
# [2] = biological target: T1, PRMT5-MEP50 enzyme complex; test: PRMT5-MEP50 Enzyme Methylation Assay (Version B); assay type: biochemical
# Outline: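 Recombinant full-length PRMT5-MEP50 (0.5 nM, Sf21-expressed) pre-incubated 30 min at 37 °C with compound (20-point, 1:2, top 100000 nM), then reacted 150 min at 37 °C with 75 nM biotinylated H4R3 peptide and 15 μM SAM in Bicine pH 8.0. Formic acid quench; SAMDI MS conversion to Me2; EC50 by sigmoidal or biphasic fit.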
# [3] = first of two EC50s: 7 parameters biphasic model, read-out: Enzyme Methylation Assay Version A (EC50_1)
# [4] = second of two EC50s: 7 parameters biphasic model, read-out: Enzyme Methylation Assay Version A (EC50_2)
# [5] = only one EC50 shown: 4 parameters single site sigmoidal model, 60 min pre-incubation with SAM, read-out: Enzyme Methylation Assay Version A (EC50)
# [6] = first of two EC50s: 7 parameters biphasic model, read-out: Enzyme Methylation Assay Version B (EC50_1)
# [7] = second of two EC50s: 7 parameters biphasic model, read-out: Enzyme Methylation Assay Version B (EC50_2)
# T1 sequence (O14744 whole entry): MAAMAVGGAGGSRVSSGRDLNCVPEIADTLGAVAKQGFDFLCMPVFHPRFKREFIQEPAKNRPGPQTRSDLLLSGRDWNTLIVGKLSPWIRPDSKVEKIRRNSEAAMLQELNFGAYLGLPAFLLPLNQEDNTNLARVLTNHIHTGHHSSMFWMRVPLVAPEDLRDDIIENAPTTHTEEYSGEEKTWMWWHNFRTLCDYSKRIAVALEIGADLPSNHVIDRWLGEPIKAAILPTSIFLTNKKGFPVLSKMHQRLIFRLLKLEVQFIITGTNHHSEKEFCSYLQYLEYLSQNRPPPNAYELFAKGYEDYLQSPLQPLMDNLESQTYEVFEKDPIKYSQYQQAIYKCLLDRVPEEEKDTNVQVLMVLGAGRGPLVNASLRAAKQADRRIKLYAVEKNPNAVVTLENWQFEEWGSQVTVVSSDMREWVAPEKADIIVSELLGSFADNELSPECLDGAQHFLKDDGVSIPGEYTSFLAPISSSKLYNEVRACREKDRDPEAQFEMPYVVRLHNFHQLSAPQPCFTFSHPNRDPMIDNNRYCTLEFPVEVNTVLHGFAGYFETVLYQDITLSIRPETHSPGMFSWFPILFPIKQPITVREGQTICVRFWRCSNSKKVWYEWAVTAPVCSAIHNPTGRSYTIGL
# T1 sequence (Q9BQA1 whole entry partner): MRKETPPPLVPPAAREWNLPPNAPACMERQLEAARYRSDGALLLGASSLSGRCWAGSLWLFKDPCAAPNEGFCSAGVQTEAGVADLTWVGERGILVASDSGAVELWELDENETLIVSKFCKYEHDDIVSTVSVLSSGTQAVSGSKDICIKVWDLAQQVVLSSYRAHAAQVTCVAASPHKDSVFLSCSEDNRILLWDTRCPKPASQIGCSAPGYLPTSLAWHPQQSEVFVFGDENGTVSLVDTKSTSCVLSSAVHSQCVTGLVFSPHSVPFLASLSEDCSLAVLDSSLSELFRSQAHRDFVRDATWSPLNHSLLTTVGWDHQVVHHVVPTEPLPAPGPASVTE
# T2 sequence (O14744 whole entry): as the sequence (O14744 whole entry) above
# T2 sequence (Q9BQA1 whole entry partner): as the sequence (Q9BQA1 whole entry partner) above
Compound,"EC50 [1, 3] [nM]","EC50 [1, 4] [nM]",EC50 (PRMT5) [nM],"EC50 [1, 5] [nM]","EC50 [2, 6] [nM]","EC50 [2, 7] [nM]"
"N#CC1(c2ccc3nc(C(=O)N4CC[C@H](N5CCc6ccccc6C5)[C@@H](O)C4)cn3c2)CC1 [Example 125, 1-(2-((3S,4S)-4-(3,4-dihydroisoquinolin-2(1H)-yl)-3-hydroxypiperidine-1-carbonyl)imidazo[1,2-a]pyridin-6-yl)cyclopropane-1-carbonitrile]",~58,13700,1750,,,
"CN1CCC(Nc2cc(C(=O)N3CC[C@H](N4CCc5ccccc5C4)[C@@H](O)C3)c(F)cn2)CC1=O (stereo partly drawn) [Example 112, 4-((4-((3S,4S)-4-(3,4-dihydroisoquinolin-2(1H)-yl)-3-hydroxypiperidine-1-carbonyl)-5-fluoropyridin-2-yl)amino)-1-methylpiperidin-2-one]",4.5,4420,50,,,
"Cc1nc2ncc(C(=O)N3CC[C@H](N4CCc5ccccc5C4)[C@@H](O)C3)n2cc1Br [Example 75, (6-bromo-7-methylimidazo[1,2-a]pyrimidin-3-yl)[(3S,4S)-4-(3,4-dihydroisoquinolin-2(1H)-yl)-3-hydroxypiperidin-1-yl]methanone]",41,1550,647,,,
"CC(=O)N1C[C@H]2CC[C@@H](C1)C2Nc1cc(C(=O)N2CC[C@H](N3CCc4ccccc4C3)[C@@H](O)C2)c(F)cn1 (stereo partly drawn) [Example 124, 1-((1R,5S)-8-((4-((3S,4S)-4-(3,4-dihydroisoquinolin-2(1H)-yl)-3-hydroxypiperidine-1-carbonyl)-5-fluoropyridin-2-yl)amino)-3-azabicyclo[3.2.1]octan-3-yl)ethan-1-one]",5.2,4270,33,,,
"CC(=O)N1CCC(Nc2cc(C(=O)N3CC[C@H](N4CCc5ccccc5C4)[C@@H](O)C3)c(F)cn2)C1 (single isomer, unassigned) [Example 114]",3.3,3130,28,,,
"Cc1nc(C)c(-c2cnc3nc(C(=O)N4CC[C@H](N5CCc6ccccc6C5)[C@@H](O)C4)cn3c2)s1 [Example 56, [(3S,4S)-4-(3,4-dihydroisoquinolin-2(1H)-yl)-3-hydroxypiperidin-1-yl][6-(2,4-dimethyl-1,3-thiazol-5-yl)imidazo[1,2-a]pyrimidin-2-yl]methanone]",,,1.8,0.4,,
"CC(C)c1nc2nc(C(=O)N3CC[C@H](N4CCc5ccccc5C4)[C@@H](O)C3)cn2cc1Br [Example 79, [6-bromo-7-(propan-2-yl)imidazo[1,2-a]pyrimidin-2-yl][(3S,4S)-4-(3,4-dihydroisoquinolin-2(1H)-yl)-3-hydroxypiperidin-1-yl]methanone]",,,4.9,0.7,,
"O=C(c1ccc2c(O)c(CC(F)(F)F)cnc2c1)N1CC[C@H](N2CCc3ccccc3C2)[C@@H](O)C1 [Example 126, ((3S,4S)-4-(3,4-dihydroisoquinolin-2(1H)-yl)-3-hydroxypiperidin-1-yl)(4-hydroxy-3-(2,2,2-trifluoroethyl)quinolin-7-yl)methanone]",1.1,1330,69,,,
"CO[C@H](C)c1cc(C(C)C)cn2cc(C(=O)N3CC[C@H](N4CCc5ccccc5C4)[C@@H](O)C3)nc12 [Example 58, [(3S,4S)-4-(3,4-dihydroisoquinolin-2(1H)-yl)-3-hydroxypiperidin-1-yl]{8-[(1R)-1-methoxyethyl]-6-(propan-2-yl)imidazo[1,2-a]pyridin-2-yl}methanone]",,,0.6,0.3,,
"CC1(C)Oc2ccc(C(=O)N3CC[C@H](N4CCc5ccccc5C4)[C@@H](O)C3)cc2NC1=O [Example 101, 6-((3S,4S)-4-(3,4-dihydroisoquinolin-2(1H)-yl)-3-hydroxypiperidine-1-carbonyl)-2,2-dimethyl-2H-benzo[b][1,4]oxazin-3(4H)-one]",0.9,2880,16,,,
"COC(=O)N1CCC(Nc2cc(C(=O)N3CC[C@H](N4CCc5ccccc5C4)[C@@H](O)C3)c(F)cn2)CC1 [Example 109, methyl 4-((4-((3S,4S)-4-(3,4-dihydroisoquinolin-2(1H)-yl)-3-hydroxypiperidine-1-carbonyl)-5-fluoropyridin-2-yl)amino)piperidine-1-carboxylate]",,,3.5,1.2,,
"CC(=O)N1CC[C@@H](CNc2cc(C(=O)N3CC[C@H](N4CCc5ccccc5C4)[C@@H](O)C3)c(F)cn2)C1 [Example 123, 1-((S)-3-(((4-((3S,4S)-4-(3,4-dihydroisoquinolin-2(1H)-yl)-3-hydroxypiperidine-1-carbonyl)-5-fluoropyridin-2-yl)amino)methyl)pyrrolidin-1-yl)ethan-1-one]",,,17,4.1,,
"CCN1CCNc2cc(C(=O)N3CC[C@H](N4CCc5ccccc5C4)[C@@H](O)C3)ccc2C1=O [Example 64, 8-((3S,4S)-4-(3,4-dihydroisoquinolin-2(1H)-yl)-3-hydroxypiperidine-1-carbonyl)-4-ethyl-1,2,3,4-tetrahydro-5H-benzo[e][1,4]diazepin-5-one]",1.9,1660,45,,,
"CC1OC(=O)Nc2cc(C(=O)N3CC[C@H](N4CCc5ccccc5C4)[C@@H](O)C3)c(F)cc21 (single isomer, unassigned) [Example 99]",,,131,,8.2,8710
"CC(=O)N1CCC(Nc2nccc(C(=O)N3CC[C@H](N4CCc5ccccc5C4)[C@@H](O)C3)c2F)C(F)(F)C1 (single isomer, unassigned) [Example 15]",,,57,,6.8,3720
"CCOC(=O)N1CCC(Nc2cc(C(=O)N3CC[C@H](N4CCc5ccccc5C4)[C@@H](O)C3)c(F)cn2)CC1 [Example 106, ethyl 4-((4-((3S,4S)-4-(3,4-dihydroisoquinolin-2(1H)-yl)-3-hydroxypiperidine-1-carbonyl)-5-fluoropyridin-2-yl)amino)piperidine-1-carboxylate]",,,6.2,,1.9,496
"CCC1Oc2ccc(C(=O)N3CC[C@@H](N4CCc5ccccc5C4)[C@H](O)C3)cc2NC1=O (single isomer, unassigned) [Example 12]",,,6070,,106,45700
"O=C(c1cn2cc(Br)ccc2n1)N1CC[C@@H](N2CCc3ccccc3C2)[C@H](O)C1 (single isomer, unassigned) [Example 2]",,,509,,13,5890
"CC1(C)CC(=O)Nc2cc(C(=O)N3CC[C@H](N4CCc5ccccc5C4)[C@@H](O)C3)ccc21 [Example 96, 7-((3S,4S)-4-(3,4-dihydroisoquinolin-2(1H)-yl)-3-hydroxypiperidine-1-carbonyl)-4,4-dimethyl-3,4-dihydroquinolin-2(1H)-one]",,,331,,~14,15100
"O=C(c1ccc(C(=O)N2C3CCC2COC3)cc1)N1CC[C@H](N2CCc3cc(F)ccc3C2)[C@@H](O)C1 [Example 39, (4-(3-oxa-8-azabicyclo[3.2.1]octane-8-carbonyl)phenyl)((3S,4S)-4-(6-fluoro-3,4-dihydroisoquinolin-2(1H)-yl)-3-hydroxypiperidin-1-yl)methanone]",,,> 10000,,31200,> 100000
